Reference: patent US6627732B1, “Glutathione derivatives and their dosage forms” (Teijin Limited, priority 1998, dated 2003)

What was measured:
[1] = Plasma concentration after intravenous administration to mice (Example 24); type: in vivo, mouse; conditions: iv tail vein 50 mg/kg, HPCD solution, 5 min, individual mice, quantitation limit about 1 μg/ml
Experimental: The blood levels of the glutathione derivatives of Example 4 and Comparative Example 1 were compared in mice that are a species having a high esterase activity in the blood.
(1) Male 8-week old BDF1 mice were purchased from Nippon SLC and used for the experiment. Until 9-week old when they were subjected to the experiment, the animals were kept at a temperature of 24±2° C. and a humidity of 55±5% under the condition under which the animals had free access to the animal feed (MF, Oriental Yeast Co., Ltd.) and drinking water (well water treated with 0.4±0.2 ppm hypochlorous acid).
After a fixed time, about 1 ml of blood was drawn from the heart of the animal under ethereal anesthesia (after drawing blood once, each mouse is sacrificed). The N number for each sample group at each time point was 2. After drawing, the blood was immediately cooled on ice and was centrifuged in the presence of sodium citrate to collect plasma. The plasma thus obtained was deproteinized with acetonitrile and then was analyzed by a C18 reverse phase high performance liquid chromatography using an aqueous solution of trifluoroacetic acid/acetonitrile system as the mobile phase to determine the concentration of glutathione derivative for each plasma.

normal healthy rats = assay: Neutrophil counts and bone marrow cells in normal healthy rats (Example 28); type: in vivo, rat
Experimental: The effects of increasing neutrophil counts of the compound of Example 4 in normal healthy rats were studied.
(1) Male SD rats, 6-week old, purchased from Nippon SLC were used. The animal feed (MF, manufactured by Oriental Yeast Co., Ltd.) and drinking water (well water treated with 0.4±0.2 ppm hypochlorous acid) were given ad libitum during the period of the experiment. The animals were each housed in a hanging-type rat cage (manufactured by Nippon Cage K.K.) and kept at a temperature of 24±2° C. and a humidity of 55±5%.
(2) The glutathione derivative of Example 4 combined with the fat emulsion at 10, 20, or 30 mg/kg-body weight/day, and the fat emulsion alone as the negative control were each repeatedly administered into the tail vein for 6 days from day 1 to 6 of the experiment. Dosage was 10 ml/kg-body weight/day. From day 1 to 10 of the experiment, blood was drawn everyday from the jugular vein and the EDTA-2K-treated blood was obtained. Then the blood was used to determine the neutrophil counts using a general chemistry test instrument (Technicon H-1E, manufactured by Bayer-Sankyo K.K.).
Part of the negative control group on days 1, 7, and 10, and part of the Example 4—the fat emulsion 30 mg/kg-body weight/day administration group on days 3, 5, 7, and 10 of the experiment were bled to death from the abdominal aorta under anesthesia by the intraperitoneal administration of pentobarbital sodium. Then, the femoral bone marrow was harvested, smears were prepared therefrom using the wedge method, stained by the May-Giemsa stain, and examined under a microscope to determine the fractionation of nucleated bone marrow cells.

[2] = Fat emulsion: particle distribution and content after 1.2 μm filtration (Examples 17, 18); type: physicochemical; conditions: final concentration about 1 mg/ml
Experimental: Preparation of the fat emulsion having as an active ingredient the glutathione derivative of Example 4 was carried out using a high-pressure injection type homogenizer.
(1) The high-pressure injection type homogenizer used was Nanomizer LA from Nanomizer K.K. Purified yolk lecithin, purified soybean oil, and glycerin used were those that can be intravenously injected.
(2) Purified yolk lecithin 6 g and purified soybean oil 55 g were mixed by a mixer while heating to homogeneity. To this was added 560 mg of the glutathione derivative of Example 4 and was further stirred to homogeneity. A suitable amount of glycerin and water for injection were added and rough-emulsified by a mixer, and pH was adjusted to 7.4 with an aqueous solution of sodium hydroxide. Water was further added to a total amount of 560 g, which was pure-emulsified using the Nanomizer LA at an emulsification pressure of 550 kgf/cm^2 by passing it through the emulsion part for 11 times. […]
When the emulsion was crushed with tetrahydrofuran before and after filtration with a 1.2 μm filter and the content of the glutathione derivative of Example 4 was measured by HPLC, it was confirmed that the content of 90% or more of that before filtration was retained, homogeneity was good, and the glutathione derivative of Example 4 was stably mixed in the oil phase emulsion particles. […]

HL-60 cells = assay: HL-60 cell differentiation induction, NBT reducing activity, DMSO as solvent (Example 21); type: cell-based, human
Source text: In a manner similar to that in Example 20, the in vitro activity of the glutathione derivatives of Examples 4, 5, and 8, and Comparative Example 3 were compared.
(1) The differences from Example 20 were: First, since the glutathione derivatives of Examples and Comparative Examples used dimethyl sulfoxide (DMSO) as the solvent because of the solubility of the compounds, the system contained 0.1-0.3 (v/v)% DMSO instead of ethanol. […] This caused slight differences in the sensitivity in the test results of the glutathione derivative of Example 4. Furthermore, in Example 21, the differentiation induction on HL-60 cells into granulocytic cells in the coexistence of 9-cis-RA was only evaluated.

CCOC(=O)[C@@H](N)CCC(=O)N[C@@H](CSCc1ccccc1)C(=O)N[C@@H](C(=O)OCC)c1ccccc1.Cl [Comparative Example 1, Glu(Cys(Bzl)-D-Phg-O(Et))-O(Et)hydrochloride, reference compound]
Plasma concentration [1]: ≤ 1000 ng/mL

CCCCCCCCCCCCCCCCOC(=O)[C@@H](N)CCC(=O)N[C@@H](CSCc1ccccc1)C(=O)N[C@@H](C(=O)OCC)c1ccccc1.Cl [Example 4, Glu(Cys(Bzl)-D-Phg-OEt)-O(Hexadecyl)hydrochloride]
Neutrophil counts in the peripheral blood relative to the negative control group (normal healthy rats; fat emulsion 30 mg/kg-body weight/day iv, days 1-6, days 2 and 5-8, significance 5%-1%): statistically significant increase in the neutrophil counts | Neutrophilic myelocytic cells having the dividing ability in bone marrow (normal healthy rats; fat emulsion 30 mg/kg-body weight/day, days 3 and 5): increased | Neutrophilic myelocytic cells having no dividing ability in bone marrow (normal healthy rats; fat emulsion 30 mg/kg-body weight/day, maximum on day 7): increases were observed on day 5, 7, and 10 | Content after filtration with a 1.2 μm filter ([2]; alcohol solution mixed with water for injection): ≤ 75% | Behaviour on mixing alcohol solution with water for injection [2]: immediately crystallized | Differentiation induction activity compared with Comparative Example 3 (HL-60 cells; HL-60, coexistence of 9-cis-RA): activity higher than that of Comparative Example 3 | Ratio of NBT reduction activity-positive cells (HL-60 cells; compound 3 × 10^−6 M in DMSO, Solvent control (EtOH - 0.1%)): 0.6% | Ratio of NBT reduction activity-positive cells (HL-60 cells; compound 3 × 10^−6 M in DMSO, with 9-cis-RA (5 × 10^−9 M)): 29.9% | Ratio of NBT reduction activity-positive cells (HL-60 cells; compound 3 × 10^−7 M in DMSO, Solvent control (EtOH - 0.1%)): 0.9% | Ratio of NBT reduction activity-positive cells (HL-60 cells; compound 3 × 10^−7 M in DMSO, with 9-cis-RA (5 × 10^−9 M)): 11.0% | Ratio of NBT reduction activity-positive cells (HL-60 cells; compound 3 × 10^−8 M in DMSO, Solvent control (EtOH - 0.1%)): 0.7% | Ratio of NBT reduction activity-positive cells (HL-60 cells; compound 3 × 10^−8 M in DMSO, with 9-cis-RA (5 × 10^−9 M)): 3.1% | Ratio of NBT reduction activity-positive cells (HL-60 cells; compound 10^−6 M in DMSO, Solvent control (EtOH - 0.1%)): 0.3% | Ratio of NBT reduction activity-positive cells (HL-60 cells; compound 10^−6 M in DMSO, with 9-cis-RA (5 × 10^−9 M)): 21.2% | Ratio of NBT reduction activity-positive cells (HL-60 cells; compound 10^−7 M in DMSO, Solvent control (EtOH - 0.1%)): 0.7% | Ratio of NBT reduction activity-positive cells (HL-60 cells; compound 10^−7 M in DMSO, with 9-cis-RA (5 × 10^−9 M)): 5.6% | Ratio of NBT reduction activity-positive cells (HL-60 cells; compound 10^−8 M in DMSO, Solvent control (EtOH - 0.1%)): 0.6% | Ratio of NBT reduction activity-positive cells (HL-60 cells; compound 10^−8 M in DMSO, with 9-cis-RA (5 × 10^−9 M)): 2.5%
